Values of other authors, collected in article PMC9370779, “Traditional Medicinal Uses, Phytochemistry, Biological Properties, and Health Applications of Vitex sp” (Plants, 2022).
Entries after “also recorded” stand apart in the source; their conditions may differ.

How the values were obtained:
Plasmodium falciparum = test system: Plasmodium falciparum; design: method as in PMID 32438132
[1] = test system: human colorectal carcinoma (HCT-116) cells; design: method as in PMID 26034885
T. b rhodesiense = test system: T. b rhodesiense; design: method as in PMID 25886869
[2] = test system: LPS-stimulated NO production
[3] = test system: LPS-induced NO production; design: method as in PMID 31302252

Question: With `CC(C)C12C=CC3(OO1)C(CCC1C(C)(C)CCCC13C)C2` (stereo not drawn) [Compound 100, abieta-11(12)-ene-9α,13α-endoperoxide] as the molecule, how does the “antimalarial activity (in words)” value (Plasmodium falciparum) read?
Answer: Its value is “exhibited antimalarial activity”.

Question: With `C=C1CC(O)C2C(C)(C)CCCC2(C)C1CC(O)C1CC(=O)OC1O` (centres unmarked) [Compound 73, vitexolide C] as the molecule, how does the “cytotoxic activity against HCT-116 cells” value [1] read?
Answer: Its value is “cytotoxic activities; also recorded: Exhibited cytotoxic activity on the HCT-116 cell lines”.

Question: Which trypanocidal activity (T. b rhodesiense) does the source give for “2-(3′,4′-dimethoxyphenyl)-7-hydroxychromen-4-one [Compound 125]” here?
Answer: Its trypanocidal activity is “All compounds exhibited moderate trypanocidal activity against T. b rhodesiense”.

Question: Which trypanocidal activity (T. b rhodesiense) does the source give for `COc1cc(O)c2c(=O)c(OC)c(-c3ccc(O)cc3)oc2c1` [Compound 123, 2-(4′-hydroxyphenyl)-5-hydroxy-3,7-dimethoxy-chromen-4-one] here?
Answer: The trypanocidal activity was “All compounds exhibited moderate trypanocidal activity against T. b rhodesiense”.

Question: Which trypanocidal activity (T. b rhodesiense) does the source give for `O=c1c(O)c(-c2ccc(O)cc2)oc2cc(O)cc(O)c12` [Compound 124, 2-(4-hydroxyphenyl)-3,5,7-trihydroxychromen-4-one] here?
Answer: Its trypanocidal activity is “All compounds exhibited moderate trypanocidal activity against T. b rhodesiense”.

Question: For `C=C1CC(O)C2C(C)(C)CCCC2(C)C1CC(O)C1=CC(=O)OC1O` (centres unmarked) [Compound 72, vitexolide B], which “cytotoxic activity against HCT-116 cells” value [1] is on record?
Answer: Its value is “cytotoxic activities; also recorded: Exhibited cytotoxic activity on the HCT-116 cell lines”.

Question: Which “inhibitory activity on LPS-stimulated NO production” value [2] does the source give for `O=C(OC[C@H]1O[C@@H](Oc2ccc(O)cc2)[C@H](O)[C@@H](O)[C@@H]1O)c1ccc(O)cc1` [Compound 156, breynioside A] here?
Answer: Its value is “Exhibited antioxidant and NO inhibitory activities”.

Question: What about the “antioxidant activity via ABTS radical scavenging assay” value of the same molecule?
Answer: Its value is “Exhibited antioxidant and NO inhibitory activities”.

Question: With `COc1cc(O[C@@H]2O[C@H](COC(=O)c3ccc(O)cc3)[C@@H](O)[C@H](O)[C@H]2O)ccc1O` [Compound 158, dunnianoside D] as the molecule, how does the “inhibitory activity on LPS-stimulated NO production” value [2] read?
Answer: The value was “Exhibited antioxidant and NO inhibitory activities”.

Question: And the “antioxidant activity via ABTS radical scavenging assay” value?
Answer: The value was “Exhibited antioxidant and NO inhibitory activities”.

Question: For `C=CC1(C)CCC2C(C)(CCC3C(C)(C)CCCC32C)O1` (centres unmarked) [Compound 102, 9αH-manoyl oxide], which “antimalarial activity (in words)” value (Plasmodium falciparum) is on record?
Answer: Its value is “exhibited antimalarial activity”.

Question: With `O=C(OC[C@H]1O[C@@H](OC(=O)c2ccc(O)cc2)[C@H](O)[C@@H](O)[C@@H]1O)c1ccc(O)cc1` [Compound 157, 1,6-di-O-4-hydroxybenzoyl-β-D-glucopyranoside] as the molecule, how does the “inhibitory activity on LPS-stimulated NO production” value [2] read?
Answer: Its value is “Exhibited antioxidant and NO inhibitory activities”.

Question: What about the “antioxidant activity via ABTS radical scavenging assay” value of the same molecule?
Answer: Its value is “Exhibited antioxidant and NO inhibitory activities”.

Question: For `COc1cc(-c2oc3cc(O)cc(O)c3c(=O)c2OC)ccc1O` [Compound 122, 2-(5′-methoxyphenyl)-4′,5,7-trihydroxy-3-methoxychromen-4-one], which trypanocidal activity (T. b rhodesiense) is on record?
Answer: Its trypanocidal activity is “All compounds exhibited moderate trypanocidal activity against T. b rhodesiense”.

Question: With `CC(C)[C@]12C=C[C@]3(OO1)[C@@H](CCC1C(C)(C)C[C@H](OC(=O)CC(=O)O)C[C@@]13C)C2` (some centres unmarked) [Compound 101a] as the molecule, how does the “antimalarial activity (in words)” value (Plasmodium falciparum) read?
Answer: The value was “exhibited antimalarial activity”.

Question: With `CC(C)C12C=CC3(OO1)C(CCC1C(C)(C)CCCC13C)C2` (stereo not drawn) [Compound 101, abieta-11(12)-ene-9β,13β-endoperoxide] as the molecule, how does the “times more active than compound 100” value (Plasmodium falciparum; Plasmodium falciparum) read?
Answer: Its value is 54.

Question: For `C=C1CC[C@H]2C(C)(C)CCC[C@]2(C)[C@H]1CC(O)/C(C)=C/C(=O)O` (some centres unmarked) [Compound 75, vitexolin A], which “cytotoxic activity against HCT-116 cells” value [1] is on record?
Answer: Its value is “cytotoxic activities; also recorded: Exhibited cytotoxic activity on the HCT-116 cell lines”.

Question: For `CC1=C(CCC2=CCOC2=O)[C@@]2(C)CC[C@H](O[C@@H]3O[C@H](CO)[C@@H](O)[C@H](O)[C@H]3O)C(C)(C)[C@@H]2CC1` [Compound 97, (3S,5R,10S)-3-[(β-D-glucopyranosyl)oxy]-labd-8,13-dien-16,15-olide], which “inhibition of LPS-induced NO production (in words)” value [3] is on record?
Answer: Its value is “strong”.

Question: And the IC50 ([3]; read-out: inhibition of NO production, IC50 value)?
Answer: Its IC50 is 40.1 ± 1.3 µM.

Question: Which “antimalarial activity (in words)” value (Plasmodium falciparum) does the source give for `CC(C)[C@@]12C=C[C@@]3(OO1)[C@@H](CCC1C(C)(C)C[C@H](OC(=O)CC(=O)O)C[C@@]13C)C2` (some centres unmarked) [Compound 100a] here?
Answer: The value was “exhibited antimalarial activity”.
